According to ChEMBL document CHEMBL1221203, “Modern synthetic efforts toward biologically active terpenes” (Nat Chem Biol, 2007):

Tested on: Human immunodeficiency virus
Assay: Antiviral activity against HIV replication in human H9 cells
Format: functional, organism-based
Conditions: Human immunodeficiency virus 1, H9

- EC50: 25 nM
Compound: C[C@]12CCC[C@]3(C(=O)OC1)[C@@H]2CC[C@@]12C[C@@H](CC[C@H]13)[C@](C)(O)C2 [NEOTRIPTERIFORDIN]
